Activity calls are given as the source filed them. The rule behind the calls is not given here.

The subject of one data set is Bacillus subtilis. The data set can be described thus: Antibacterial activity against Bacillus subtilis at 100 ug/disk. In kind it is functional.
The test system of a further data set is Klebsiella pneumoniae. The data set can be described thus: Antibacterial activity against Klebsiella pneumoniae at 100 ug/disk. In kind it is functional.
The subject of a further data set is Artemia. Put plainly: Toxicity against brine shrimp. It is filed as organism-based. Particulars: in vivo.
In another data set the test system is Escherichia coli. Put plainly: Antibacterial activity against sEscherichia coli at 100 ug/disk. It is filed as functional.
For a further data set, the system named is Staphylococcus aureus. The data set can be described thus: Antibacterial activity against Staphylococcus aureus at 100 ug/disk. In kind it is functional.

Take `COc1cc(O)c2c(c1)C(COC(C)=O)N(C=O)C=C2` (stereo not given): the result in the data set on Bacillus subtilis, in the data set on Klebsiella pneumoniae, with Escherichia coli and in the data set with Staphylococcus aureus was inactive. In the data set with Artemia, the Activity result was “Non-toxic”.
For `CC(=O)OCc1nccc2c1C(=O)C(O)=C(C)C2=O`, the zone of inhibition at 100 µg/disc with Bacillus subtilis (read-out: IZ) came out at 16 mm; with Klebsiella pneumoniae (read-out: IZ) it was 12 mm; in the data set with Escherichia coli (read-out: IZ) it was 12 mm; in the data set on Staphylococcus aureus (read-out: IZ), 14 mm. Moreover, the Activity result in the data set with Artemia is recorded as “Non-toxic”.

The values above are taken from ChEMBL document CHEMBL1141854, “A new 1,2-dihydroisoquinoline from the sponge petrosia similis” (J Nat Prod, 1999).
